Publication PMC4468182, “Murine Efficacy and Pharmacokinetic Evaluation of the Flaviviral NS5 Capping Enzyme 2-Thioxothiazolidin-4-One Inhibitor BG-323” (PLoS ONE, 2015)
Several values for one entry are separate records, joined by “and”; a condition that tells them apart may be missing. Equal entries are not always repeated.

Columns and labels:
[1] = test system: West Nile virus (NY99 strain); test: In vitro West Nile virus efficacy assay (plaque assay); assay type: cell-based
[2] = test system: Powassan virus (LB strain); assay type: cell-based
WNV (Kunjin subtype) = test: BG-323 resistance study, six rounds of infection; assay type: cell-based, West Nile virus; conditions: 75 μM BG-323, BHK21 cells, 100 PFU Kunjin per round, six 3-day rounds
Method: On day one, BHK-21 cells (ATCC) were seeded in 12-well plates at 50,000 cells/mL and allowed to attach overnight. The following day, each of 9 wells was infected with 100 PFU WNV (Kunjin subtype) in complete DMEM (cDMEM) and 3 uninfected control wells received cDMEM only. Cells were incubated with media for 2 hr at 37°C to allow cells to become infected. After 2 hr, infected cDMEM was replaced with new media containing DMSO or 75 μM BG-323. Each condition was run in triplicate. Following DMSO or drug administration, cells were incubated at 37°C. On day 3, samples were collected and stored at -80°C. Viral titers were calculated by plaque assay as previously described on one tube of the day 3 samples for each replicate. 100 PFU from an unthawed day 3 sample was used to infect fresh BHK 21 cells to start the next round of infection. The three-day cycle was considered one round of infection and the study continued for 6 rounds. The infectious input of Kunjin virus and the concentrations (75 μM) of BG-323 were held constant throughout the study.

[3] = In vivo toxicity assay (mouse weight); parameters: species or system ICR mice; conditions: 50 mg/kg IP
Method: Two groups of 3 mice each were either injected with 150 μL of 50 mg/kg BG-323 (synthesized by Brian McNaughton’s group at CSU [15]) formulated in 10% DMSO, 15% solutol and 75% saline or DMSO vehicle in the same formulation. Mice were weighed daily for 7 days and percent of maximum weight loss was calculated.

WNV NY99 = test: In vivo antiviral efficacy in WNV NY99-challenged mice; parameters: species or system ICR mice; key to Clinical score, day 1 post-challenge / Clinical score, day 2 post-challenge / Clinical score, day 3 post-challenge / Clinical score, day 4 post-challenge / Clinical score, day 5 post-challenge / Clinical score, day 6 post-challenge / Clinical score, day 7 post-challenge / Clinical score, day 8 post-challenge / Clinical score, day 9 post-challenge / Clinical score, day 10 post-challenge / Clinical score, day 11 post-challenge / Clinical score, day 12 post-challenge / Clinical score, day 13 post-challenge / Clinical score, day 14 post-challenge: 0 is normal; 1 is questionable illness; 2 is distinct mild illness; 3 is distinct disease; 4 is serious disease/moribund
[4] = Plasma protein binding assay (Rapid Equilibrium Dialysis); assay type: in vitro ADME; conditions: human plasma, 5 μM, pH 7.4, 37°C, 4 hr
[5] = test system: West Nile virus (subtype Kunjin); parameters: method as in PMID 22674988; conditions: 75 μM, cell culture, previously tested; cited from earlier work
Yellow fever viruses = conditions: cited from earlier work
Caco-2 cells = test: Caco-2 cell permeability assay; conditions: 5 μM, Caco-2, pH 7.4, 120 min
CYP P450 isoform 2C9 = CYP P450 isoform 2C9 (Homo sapiens, UniProt P11712); test: CYP P450 binding assay, isoform 2C9; conditions: 10 μM, human liver microsomes, diclofenac substrate, vs sulfaphenazole positive control
Chain of CYP P450 isoform 2C9 (P11712 whole entry, canonical isoform): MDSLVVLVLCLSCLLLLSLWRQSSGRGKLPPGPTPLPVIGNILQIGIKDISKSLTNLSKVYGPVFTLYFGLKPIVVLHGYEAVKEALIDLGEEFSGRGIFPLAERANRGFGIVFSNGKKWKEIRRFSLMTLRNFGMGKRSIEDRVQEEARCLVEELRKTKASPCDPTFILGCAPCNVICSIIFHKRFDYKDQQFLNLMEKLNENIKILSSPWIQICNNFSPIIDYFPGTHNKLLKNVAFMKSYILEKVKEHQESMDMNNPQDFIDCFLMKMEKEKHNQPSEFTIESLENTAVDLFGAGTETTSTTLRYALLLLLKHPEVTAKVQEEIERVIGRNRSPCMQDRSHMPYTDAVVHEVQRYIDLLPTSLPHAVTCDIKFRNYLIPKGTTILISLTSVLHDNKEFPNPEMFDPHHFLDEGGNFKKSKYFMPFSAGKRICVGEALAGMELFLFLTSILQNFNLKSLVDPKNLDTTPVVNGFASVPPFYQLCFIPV

CYP P450 isoform 3A4 = CYP P450 isoform 3A4 (Homo sapiens, UniProt P08684); test: CYP P450 binding assay, isoform 3A4; conditions: 10 μM, human liver microsomes, midazolam substrate, vs ketoconazole positive control
Chain of CYP P450 isoform 3A4 (P08684 whole entry, canonical isoform): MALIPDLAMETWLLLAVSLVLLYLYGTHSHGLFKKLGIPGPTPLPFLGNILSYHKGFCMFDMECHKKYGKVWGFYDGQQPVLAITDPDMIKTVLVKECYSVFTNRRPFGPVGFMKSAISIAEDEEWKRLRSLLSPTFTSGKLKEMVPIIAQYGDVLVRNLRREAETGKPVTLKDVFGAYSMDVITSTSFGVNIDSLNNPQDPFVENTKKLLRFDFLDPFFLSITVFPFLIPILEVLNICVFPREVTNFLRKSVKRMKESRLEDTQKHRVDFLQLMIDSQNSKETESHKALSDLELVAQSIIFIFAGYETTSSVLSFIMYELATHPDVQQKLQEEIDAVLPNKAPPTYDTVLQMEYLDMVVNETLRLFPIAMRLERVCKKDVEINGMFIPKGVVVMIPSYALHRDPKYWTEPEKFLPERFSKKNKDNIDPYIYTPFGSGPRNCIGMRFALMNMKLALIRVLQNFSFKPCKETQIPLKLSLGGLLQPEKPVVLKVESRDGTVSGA

[6] = In vivo half-life (T1/2), serum LC/MS/MS
[7] = Metabolic stability assay in liver microsomes; conditions: 1 μM, human liver microsomes 0.5 mg/mL, NADPH
[8] = mice, 0.38 mL bolus of 5 mg/mL, serum

CC(C)(C)c1ccc(/C=C2/SC(=S)N(CCC(=O)O)C2=O)cc1 [BG-323, (E)-{3-[5-94-tert-butylbenzylidene0-4-oxo-2-thioxo-1,3-thiazolidin-3-yl]propanoic acid}]
reduction of West Nile virus titers [1]: approximately 5 logs
reduction in viral titers compared to DMSO controls (WNV) ([1]; 75 μM, BHK21 cells, 72 hours, Fig 1 legend): ~5 fold
reduction in viral titers compared to DMSO controls (Powassan) [2]: ~5 fold
reduction of Powassan virus titers [2]: approximately 5 logs
emergence of resistance (viral titers over time) (WNV (Kunjin subtype)): no significant increase in viral titers over time
gross toxicity in mice ([3]; 7 days): does not appear to be grossly toxic
average weight loss percentage (maximum weight loss) ([3]; mice, weights monitored 7 days): 3.5%
average viral titers in sera on day three (WNV NY99; 500 PFU WNV NY99 footpad, 50 mg/kg IP BID 5 days, day 3 post challenge): 1.6x10^5 PFU/mL
Clinical score, day 1 post-challenge (WNV NY99; individual WNV NY99-challenged mice, 50 mg/kg IP BID 5 days, day 1): 0
Clinical score, day 2 post-challenge (WNV NY99; individual WNV NY99-challenged mice, 50 mg/kg IP BID 5 days, day 2): 0
Clinical score, day 3 post-challenge (WNV NY99; individual WNV NY99-challenged mice, 50 mg/kg IP BID 5 days, day 3): 0
Clinical score, day 4 post-challenge (WNV NY99; individual WNV NY99-challenged mice, 50 mg/kg IP BID 5 days, day 4): 0
Clinical score, day 5 post-challenge (WNV NY99; individual WNV NY99-challenged mice, 50 mg/kg IP BID 5 days, day 5): 0
Clinical score, day 6 post-challenge (WNV NY99; individual WNV NY99-challenged mice, 50 mg/kg IP BID 5 days, day 6): 1
Clinical score, day 7 post-challenge (WNV NY99; individual WNV NY99-challenged mice, 50 mg/kg IP BID 5 days, day 7): 1 and 4
Clinical score, day 8 post-challenge (WNV NY99; individual WNV NY99-challenged mice, 50 mg/kg IP BID 5 days, day 8): 1 and 4
Clinical score, day 9 post-challenge (WNV NY99; individual WNV NY99-challenged mice, 50 mg/kg IP BID 5 days, day 9): 4 and 2 and 1
Clinical score, day 10 post-challenge (WNV NY99; individual WNV NY99-challenged mice, 50 mg/kg IP BID 5 days, day 10): 4 and 1
Clinical score, day 11 post-challenge (WNV NY99; individual WNV NY99-challenged mice, 50 mg/kg IP BID 5 days, day 11): 1
Clinical score, day 12 post-challenge (WNV NY99; individual WNV NY99-challenged mice, 50 mg/kg IP BID 5 days, day 12): 0
Clinical score, day 13 post-challenge (WNV NY99; individual WNV NY99-challenged mice, 50 mg/kg IP BID 5 days, day 13): 0
Clinical score, day 14 post-challenge (WNV NY99; individual WNV NY99-challenged mice, 50 mg/kg IP BID 5 days, day 14): 0
survival probability (Kaplan-Meier) versus control (WNV NY99; mouse, in vivo): approximately the same between the two groups
percent bound to plasma proteins [4]: 99.9%
log reduction of titers, West Nile virus (subtype Kunjin) [5]: approximately 2 log
log reduction of titers, Yellow fever virus (Yellow fever viruses): ~1 log
Average Papp, A to B (Caco-2 cells; A to B): 49.4±1 x 10^−6 cm/s
Percent Recovery, A to B (Caco-2 cells; A to B): 43%
Average Papp, B to A (Caco-2 cells; B to A): 49.6±9.5 x 10^−6 cm/s
Percent Recovery, B to A (Caco-2 cells; B to A): 57%
percent inhibition of CYP 2C9 (CYP P450 isoform 2C9): insignificant compared to positive controls
percent inhibition of CYP 3A4 (CYP P450 isoform 3A4): insignificant compared to positive controls
T1/2 in mice ([6]; 0.38 mL bolus of 5 mg/mL, serum): 1.75 h
Initial concentration (C0) [6, 8]: 19275 ng/mL
elimination rate constant (Kel) [6, 8]: 0.395 h⁻¹
average serum concentration five min after administration ([6]; mice, 0.38 mL of 5 mg/mL, 5 min): ~21,000 ng/mL
T1/2 in human liver microsomes [7]: > 1 h
in vitro intrinsic clearance (CLint) [7]: < 0.023 mL/min/mg protein
percent of initial concentration remaining at 60 minutes ([7]; 60 min): 85%
